Experimental data from patent publication US20210100737A1, “TRANSDERMAL DELIVERY OF DRONABINOL” (Starton Therapeutics, Inc., priority 2019, published 2021).

What was measured:
[1] = cited from earlier work
[2] = dosage of 7 mg/m^2; cited from earlier work
[3] = in 96 hrs through human cadaver skin; U.S. Pat. No. 8,449,908; cited from earlier work
[4] = Delivery of THC through human cadaver skin (U.S. Pat. No. 8,449,908); assay type: in vitro ADME; conditions: calculated from the cumulative amount in 96 hrs
Method: U.S. Pat. No. 8,449,908 provides delivery of the cumulative amount of 10000 ng THC in 96 hrs through the human cadaver skin. This amount represents the flux of 60 ng/cm^2/hr. The patch area can be calculated using following equation: […]
In order to deliver a therapeutic dosage of 5 mg/day of delta-9-THC, a transdermal formulation would need to cover at least […] surface area of the patient's skin. This is an impractical patch size for any transdermal drug delivery system (TDDS).

## CCCCCc1cc(O)c2c(c1)OC(C)(C)[C@@H]1CCC(C)=C[C@@H]21 (relative stereo) [dronabinol, (6aR-trans)-6a,7,8,10a-tetrahydro-6,6,9-trimethyl-3-pentyl-6H-dibenzo[b,d]pyran-1-ol]
[1]; after oral administration, first pass hepatic metabolism
  share of the administered dose that reaches systemic circulation: 10%-20%
[1]; in vivo
  Alpha half-life: about 4 hours
[2]
  adverse effects: not induced
[3]
  cumulative amount of THC delivered: 10000 ng
[4]
  flux: 60 ng/cm^2/hr
